According to patent US5516797A, “Immunosuppressive compounds” (Vertex Pharmaceuticals, Incorporated, priority 1994, dated 1996):

Tests used:
[1] = tested on: PBLs stimulated with LB human viral transformed B lymphoblastoid cells; assay: MLR bioassay LB: inhibition of proliferation in mixed lymphocyte reaction; assay type: cell-based; conditions: Lymphoblastoid cell, pulsed on day 6, harvested 24 h later
Procedure: (§1) LB and JVMhuman viraltransformed B lymphoblastoid cell lines stimulated t
(§2) proliferate in a mixed lymphocyte reaction (MLR). The compounds are
(§3) evaluated on their ability to inhibit this proliferation.
(§4) Fresh peripheral blood lymphocytes (PBLs) from LeukoPak cells or whole blood from random normal blood donors (tested HIV-negative and hepatitis negative) are isolated and separated by density centrifugation over Histopaque 1077 (Sigma Chemical Co., St. Louis, Mo.). The murine CTLL cytotoxic T cell line and the human Jurkat T cell line are from ATCC (CTLL-2 ATCC TIB214, JURKAT CLONE E6-1 ATCC TIBl52). The human allogeneic B cell lines used for activation of the fresh PBLs are EBV-transformed lymphocytes from normal healthy adult donors with two completely different HLAhaplotypes. All cell lines were routinely tested for the presence of Mycolasma contamination using the GibcoMycotect test kit and are Mycolasma-free. Culture medium consksts of RPMI 1640 (Gibco, Grand Island, N.Y.) containing penicillin (50 U/ml) and streptomycin (50 μg/ml), L-glutamine 2 mM, 2 mercaptoethanol (5×10^-5), 10% heat-inactivated FCS and 10 mM HEPES.
(§5) All chemical stocks were dissolved in DMSO.
(§6) MLR Bioassays ("LB" and "JVM")
(§7) Antigen activated proliferation of PBLs in a primary mixed lymphocyte reaction was assessed in the presence or absence of different concentrations of tested compounds and control drugs. 5×10^4 fresh PBLs were stimulated with 5×10^3 of Mitomycin C treated-allogeneic EBV-transformed β-lymphoglastoid cells, IB and JVM, in a final volume of 200 μl per well in 96-well round-bottomed plates (Mishell, B. B. and S. M. Shiigi, Selected Methods in Cellular Immunology W. H. Freeman and Co., San Francisco, Calif. (1980); Nelson, P. A. et al., Transplantation 50:286 (1990)). Cultures were pulsed on day 6, harvested 24 h later and counted as in previous section.

[2] = tested on: human peripheral blood lymphocytes; assay: Mitogenesis assay OKT3: inhibition of proliferation of human PBLs; assay type: cell-based; conditions: Lymphocyte, OKT3 (10^-4 dilution final), 48 h incubation
Procedure: (§8) PMA and OKT3mitogens used to stimulate proliferation of human peripheral
(§9) blood lymphocytes (PBC). Compounds are evaluated on their ability to
as §4, §5
(§10) Mitogenesis Assays ("PMA" and "OKT3")
(§11) After 48 h incubation (37° C., 5% CO2), cells were pulsed with 1 μCi of ^3 H-thymidine, harvested 24 h later with a Tom Tek cell harvester, and counted in LKB β-scintillation counter.

[3] = target: FK-506 binding protein (FKBP) (Homo sapiens, UniProt P62942); assay: Inhibition of PPIase (rotamase) enzyme activity of FKBP (apparent Ki); assay type: biochemical; conditions: substrate N-succinylAla-Ala-Pro-Phe-p-nitroanilide, chymotrypsin-coupled
Description: The inhibition of the PPIase (rotamase) enzyme activity of the FKBP (apparent "Ki" values) can also be measured according to the methods described by either Harding, M. W. et al., Nature 341:758-760 (1989) or Siekierka, J. J. et al., Nature 341:755-757 (1989). The cis-trans isomerization of the proline-alanine peptide bond in a model substrate, N-succinylAla-Ala-Pro-Phe-p-nitroanilide, is monitored spectrophotometrically in a coupled assay with chymotrypsin, which releases 4-nitroanilide from the trans form of the substrate. Fischer, G. et al., Nature 337:476-478 (1989). The inhibitory effect of the addition of different concentrations of inhibitor on the extent of the reaction is determined, and analysis of the change in first order rate constant as a function of inhibitor concentration yields an estimate of the apparent Ki value.

[4] = tested on: PBLs stimulated with JVM human viral transformed B lymphoblastoid cells; assay: MLR bioassay JVM: inhibition of proliferation in mixed lymphocyte reaction; assay type: cell-based; conditions: Lymphoblastoid cell, pulsed on day 6, harvested 24 h later
Procedure: as §1, §2, §3, §4, §5, §6, §7

[5] = tested on: human peripheral blood lymphocytes; assay: Mitogenesis assay PMA: inhibition of proliferation of human PBLs; assay type: cell-based; conditions: Lymphocyte, PMA (10 ng/ml) plus ionomycin (250 ng/ml), 48 h incubation
Procedure: as §8, §9, §4, §5, §10, §11

Chain of FK-506 binding protein (FKBP) (P62942 whole entry): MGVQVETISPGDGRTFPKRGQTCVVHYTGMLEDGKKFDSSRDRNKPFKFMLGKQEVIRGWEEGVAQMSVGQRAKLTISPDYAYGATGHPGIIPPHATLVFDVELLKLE

Row | SMILES | IC50 [1] [µM] | IC50 [2] [µM] | Ki [3] [µM] | IC50 [4] [µM] | IC50 [5] [µM]
1 | COc1cc(C(=O)C(=O)N2CCCC[C@H]2C(=O)OCC=CCc2ccccc2)cc(OC)c1OC [Compound 86] | > 10 | > 10 | 0.8 | > 10 | 9
2 | O=C(OCCCc1ccccc1)[C@@H]1CCCCN1C(=O)C(=O)C1(F)CCCCC1 [Compound 91] | > 10 | > 10 | 0.54 | > 10 | > 10
3 | O=C(OCc1ccccc1)[C@@H]1CCCCN1C(=O)/C=C/c1cccnc1 [Compound 121] | – | – | 25 | – | –
4 | C/C(=C\[C@H]1CC[C@@H](O)CC1)COC(=O)[C@@H]1CCCCN1C(=O)C(=O)c1ccccc1 [Compound 25, (E)-3-[cis-4-(hydroxycyclohexyl)]-2-methylprop-2-enyl N-(phenylglyoxyl)-pipecolate] | > 10 | > 10 | 0.6 | > 10 | > 10
5 | O=C(Cc1ccccc1)C(=O)N1CCCC[C@H]1C(=O)OCCCCc1ccccc1 [Compound 95] | > 10 | > 10 | 0.35 | > 10 | > 10
6 | O=C(CC1CCCCC1)C(=O)N1CCCC[C@H]1C(=O)OCCCCc1ccccc1 [Compound 99] | > 10 | > 10 | 0.12 | > 10 | > 10
7 | CC(C)Oc1cccc(C(=O)C(=O)N2CCCC[C@H]2C(=O)OCCCCc2ccccc2)c1 [Compound 76] | 9 | 10 | 0.1 | > 10 | 5
8 | C=CCOC(=O)[C@@H]1CCCCN1C(=O)C(=O)c1ccccc1 [Compound 4] | – | – | 8 | – | –
9 | COc1cc(C(=O)C(=O)N2CCCC[C@H]2C(=O)OCc2ccc(-c3ccccc3)cc2)cc(OC)c1OC [Compound 59] | – | – | 2 | – | –
10 | C=CCOc1cccc(C(=O)C(=O)N2CCCC[C@H]2C(=O)OCc2ccccc2)c1 [Compound 65] | > 10 | > 10 | 1 | > 10 | > 10
11 | O=C(OCc1ccccc1)[C@@H]1CCCCN1C(=O)/C=C/c1ccoc1 [Compound 119] | – | – | 2.5 | – | –
12 | COc1ccc(COCc2coc(C(=O)C(=O)N3CCCC[C@H]3C(=O)OCCCCc3ccccc3)c2)cc1 [Compound 103] | 10 | 10 | 0.7 | > 10 | 7
13 | COc1cc(C(=O)C(=O)N2CCCC[C@H]2C(=O)OCCC=Cc2ccccc2)cc(OC)c1OC [Compound 87] | > 10 | > 10 | 0.5 | > 10 | 7
14 | CC(C)(C)C(=O)C(=O)N1CCCC[C@H]1C(=O)OCCCCc1ccccc1 [Compound 104] | > 10 | > 10 | 0.18 | > 10 | 4
15 | O=C(C(=O)N1CCCC[C@H]1C(=O)OCc1ccccc1)c1ccc(F)c(F)c1 [Compound 44] | – | – | 3 | – | –
16 | COc1cc(C(=O)C(=O)N2CCCC[C@H]2C(=O)OCc2cccc(Oc3ccccc3)c2)cc(OC)c1OC [Compound 61] | > 10 | 8 | – | > 10 | 4
17 | CCC(C)C(=O)C(=O)N1CCCC[C@H]1C(=O)OCc1ccccc1 (stereo partly drawn) [Compound 67] | > 10 | > 10 | 1 | > 10 | > 10
18 | COc1cc(C(=O)C(=O)N2CCCC[C@H]2C(=O)OCCCc2ccccc2)cc(OC)c1OC [Compound 83] | 8.5 | 5.5 | 0.11 | 7.5 | 5.5
19 | O=C(C(=O)N1CCCC[C@H]1C(=O)OCCc1ccccc1)c1ccccc1 [Compound 68] | > 10 | > 10 | – | > 10 | > 10
20 | O=C(C(=O)N1CCCC[C@H]1C(=O)OCCCc1ccccc1)C1=CCCCC1 [Compound 89] | > 10 | > 10 | 0.78 | > 10 | 8
21 | O=C(C(=O)N1CCCC[C@H]1C(=O)OCc1ccc(-c2ccccc2)cc1)c1ccccc1 [Compound 58] | – | – | 5 | – | –

Row | SMILES | IC50 [1] [µM] | IC50 [2] [µM] | Ki [3] [µM] | IC50 [4] [µM] | IC50 [5] [µM]
22 | O=C(C(=O)N1CCC[C@H]1C(=O)OCc1ccccc1)c1ccccn1 [Compound 43] | – | – | 300 | – | –
23 | C/C(=C\[C@H]1CC[C@H](O)CC1)COC(=O)[C@@H]1CCCCN1C(=O)C(=O)c1ccccc1 [Compound 26] | > 10 | 6.5 | 0.5 | > 10 | > 10
24 | C/C(=C\c1ccccc1)COC(=O)[C@@H]1CCCCN1C(=O)C(=O)c1ccccc1 [Compound 23] | > 10 | > 10 | 1.5 | > 10 | > 10
25 | O=C(C(=O)N1CCCC[C@H]1C(=O)OCCCCC1CCCCC1)c1ccccc1 [Compound 56] | > 10 | > 10 | – | 6.5 | > 10
26 | CCCCOc1cccc(C(=O)C(=O)N2CCCC[C@H]2C(=O)OCc2ccccc2)c1 [Compound 75] | 9 | > 10 | 0.36 | > 10 | 8
27 | COc1cc(C(=O)C(=O)N2CCCC[C@H]2C(=O)OCCCCCc2ccccc2)cc(OC)c1OC [Compound 70] | > 10 | 4.5 | 0.07 | 9 | 7
28 | CC(C)CC(=O)C(=O)N1CCCC[C@H]1C(=O)OCc1ccccc1 [Compound 7] | > 10 | > 10 | 0.9 | > 10 | > 10
29 | O=C(OCc1ccccc1)[C@@H]1CCCCN1C(=O)/C=C/c1ccco1 [Compound 118] | – | – | 2.5 | – | –
30 | O=C(OCc1ccccc1)[C@@H]1CCCCN1C(=O)/C=C/c1ccccc1 [Compound 123] | – | – | 11 | – | –
31 | COC(=O)C(=O)N1CCCC[C@H]1C(=O)OC/C(C)=C/c1ccc(O)cc1 [Compound 38] | – | – | 60 | – | –
32 | COC(=O)C(=O)N1CCCC[C@H]1C(=O)OC/C(C)=C/c1ccc(OC)c(OC)c1 [Compound 37] | – | – | 10 | – | –
33 | C[C@H](NC(=O)/C=C/c1ccc2c(c1)OCO2)C(=O)OCc1ccccc1 [Compound 132, (S)-3-(3,4-Methylenedioxyphenyl)-prop-2-enoylalanine benzyl ester] | – | – | 60 | – | –
34 | C[C@@H](C(=O)OCc1ccccc1)N(C)C(=O)/C=C/c1ccc2c(c1)OCO2 [Compound 131] | – | – | 50 | – | –
35 | O=C(C(=O)N1CCCC[C@H]1C(=O)OCCCCc1ccccc1)c1ccccc1 [Compound 64] | > 10 | 6 | – | > 10 | 10
36 | C=CC(=O)N1CCCC[C@H]1C(=O)OCc1ccccc1 [Compound 122] | – | – | 300 | – | –
37 | COc1cc(C(=O)C(=O)N2CCCC[C@H]2C(=O)OCCCCC2CCCCC2)cc(OC)c1OC [Compound 57] | > 10 | 4.5 | – | 8 | 4
38 | COc1ccc(OC)c(/C=C/C(=O)N2CCC[C@H]2C(=O)OCc2ccccc2)c1 [Compound 113] | – | – | 10 | – | –
39 | C/C(=C\c1ccc(O)cc1)COC(=O)[C@@H]1CCCCN1C(=O)C(=O)c1ccccc1 [Compound 24] | – | – | 6 | – | –
40 | COc1cc(C(=O)C(=O)N2CCCC[C@H]2C(=O)OCCCc2c[nH]c3ccccc23)cc(OC)c1OC [Compound 84] | 6 | 6 | – | > 10 | 4.5
41 | O=C(C(=O)N1CCCC[C@H]1C(=O)OCc1ccccc1)c1ccccc1C(F)(F)F [Compound 55] | – | – | 5 | – | –
42 | COc1cc(OC)c(OC)cc1/C=C/C(=O)N1CCC[C@H]1C(=O)OCc1ccccc1 [Compound 114] | – | – | 25 | – | –
